The text below walks through data of patent US20250195530A1, “POLQ INHIBITORS” (ASTRAZENECA AB, priority 2022, published 2025).

In one assay the test system is DLD-1 cells. Put plainly: Inhibition of proliferation, DLD-1 BRCA2 wt control (Cell Titre Glo 3D). It counts as cell-based. As to conditions: Homo sapiens, DLD-1, second proliferation column (c6), taken as DLD-1 BRCA2 wt; read-out: POLQ PD Prolif Lumin (converted). In short, it runs like this: (§1)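 Luminescent Cell Titre Glo 3D readout, taken on day 12 for homologous-recombination-deficient DLD-1 BRCA2−/− and day 7 for the wild-type control, after compound refresh on day 6. Compounds spanned 10 μM to 0.51 nM in three-fold steps; IC50 defined as 50% reduction of average maximum signal.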

A further assay concerns DLD-1 BRCA2−/− cells. Put plainly: Homologous recombination synthetic lethal inhibition of proliferation, DLD-1 BRCA2-/- (Cell Titre Glo 3D). It counts as cell-based. The note with it: Homo sapiens, DLD-1, first proliferation column (c5), taken as DLD-1 BRCA2-/-; read-out: POLQ PD Prolif Lumin (converted). In short, it runs like this:
as §1

Each structure is given as a SMILES string.

`CC1(Oc2ncnc3c2nc(-c2ccc(OCCN4CCNCC4)cc2Cl)n3Cc2nccc(Cl)c2F)CC1` [Example T345, 9-((4-chloro-3-fluoropyridin-2-yl)methyl)-8-(2-chloro-4-(2-(piperazin-1-yl)ethoxy)phenyl)-6-(1-methylcyclopropoxy)-9H-purine]: the IC50 in the assay on DLD-1 cells is 10000 nM; with DLD-1 BRCA2−/− cells it was 794 nM.

Turning to `CC1(Oc2ncnc3c2nc(-c2ccc(OCCN4CCNCC4)cc2Cl)n3Cc2cc(Cl)c(F)cn2)CC1` [Example T346, 8-(2-chloro-4-(2-(piperazin-1-yl)ethoxy)phenyl)-9-((4-chloro-5-fluoropyridin-2-yl)methyl)-6-(1-methylcyclopropoxy)-9H-purine], the IC50 was over 10000 nM with DLD-1 cells and 1580 nM in the assay with DLD-1 BRCA2−/− cells.

In the case of `CC1(Oc2ncnc3c2nc(-c2ccc(OCCCN4CC(O)C4)cc2Cl)n3Cc2cc(Cl)ccn2)CC1` [Example T347, 1-(3-(3-chloro-4-(9-((4-chloropyridin-2-yl)methyl)-6-(1-methylcyclopropoxy)-9H-purin-8-yl)phenoxy)propyl)azetidin-3-ol], the IC50 was over 7940 nM in the assay with DLD-1 cells and 158 nM with DLD-1 BRCA2−/− cells.

For `CC1(Oc2ncnc3c2nc(-c2ccc(OCCN4CCNCC4)cc2Br)n3Cc2cc(Cl)ccn2)CC1` [Example T348, 8-(2-bromo-4-(2-(piperazin-1-yl)ethoxy)phenyl)-9-((4-chloropyridin-2-yl)methyl)-6-(1-methylcyclopropoxy)-9H-purine], the figures for the IC50 with DLD-1 cells and in the assay with DLD-1 BRCA2−/− cells were over 10000 nM and 126 nM, respectively.

Regarding `CC1(Oc2ncnc3c2nc(-c2ccc(OCCN4CCNCC4)cc2F)n3Cc2cc(Cl)ccn2)CC1` [Example T349, 9-((4-chloropyridin-2-yl)methyl)-8-(2-fluoro-4-(2-(piperazin-1-yl)ethoxy)phenyl)-6-(1-methylcyclopropoxy)-9H-purine], the IC50 in the assay with DLD-1 cells is over 10000 nM; in the assay with DLD-1 BRCA2−/− cells, 631 nM.

Consider `CN(C)CCCOc1ccc(-c2nc3c(OC4(C)CC4)ncnc3n2Cc2cc(C(F)F)ccn2)c(Cl)c1` [Example T352, 3-(3-chloro-4-(9-((4-(difluoromethyl)pyridin-2-yl)methyl)-6-(1-methylcyclopropoxy)-9H-purin-8-yl)phenoxy)-N,N-dimethylpropan-1-amine], for which the figures for the IC50 in the assay with DLD-1 cells and in the assay with DLD-1 BRCA2−/− cells were over 10000 nM and 158 nM, respectively.

Regarding `Cc1ccnc(Cn2c(-c3ccc(CN4CC[C@@H](O)C4)cc3Cl)nc3c(OC4(C)CC4)ncnc32)c1` [Example T353, (R)-1-(3-chloro-4-(6-(1-methylcyclopropoxy)-9-((4-methylpyridin-2-yl)methyl)-9H-purin-8-yl)benzyl)pyrrolidin-3-ol], the IC50 with DLD-1 cells is over 10000 nM; with DLD-1 BRCA2−/− cells, 316 nM.

Take `Cc1ccnc(Cn2c(-c3ccc(OC4CCNCC4)cc3Cl)nc3c(OC4(C)CC4)ncnc32)c1` [Example T354, 8-(2-chloro-4-(piperidin-4-yloxy)phenyl)-6-(1-methylcyclopropoxy)-9-((4-methylpyridin-2-yl)methyl)-9H-purine]: the IC50 was over 10000 nM with DLD-1 cells and 501 nM in the assay with DLD-1 BRCA2−/− cells.

Take `Cc1ccnc(Cn2c(-c3ccc(CCN4CC(O)C4)cc3Cl)nc3c(OC4(C)CC4)ncnc32)c1` [Example T355, 1-(3-chloro-4-(6-(1-methylcyclopropoxy)-9-((4-methylpyridin-2-yl)methyl)-9H-purin-8-yl)phenethyl)azetidin-3-ol]: the figures for the IC50 with DLD-1 cells and in the assay on DLD-1 BRCA2−/− cells were over 10000 nM and 631 nM, respectively.

On to `Cc1ccnc(Cn2c(-c3ccc(OC[C@H]4CCCN4)cc3Cl)nc3c(OC4(C)CC4)ncnc32)c1` [Example T356, (R)-8-(2-chloro-4-(pyrrolidin-2-ylmethoxy)phenyl)-6-(1-methylcyclopropoxy)-9-((4-methylpyridin-2-yl)methyl)-9H-purine], for which the results for the IC50 in the assay with DLD-1 cells and with DLD-1 BRCA2−/− cells were over 10000 nM and 200 nM, respectively.

`Cc1ccnc(Cn2c(-c3ccc(CC(=O)NC(C)C)cc3Cl)nc3c(OC4(C)CC4)ncnc32)c1` [Example T357, 2-(3-chloro-4-(6-(1-methylcyclopropoxy)-9-((4-methylpyridin-2-yl)methyl)-9H-purin-8-yl)phenyl)-N-isopropylacetamide]: the figures for the IC50 in the assay with DLD-1 cells and in the assay on DLD-1 BRCA2−/− cells were over 10000 nM and 398 nM, respectively.
